Measured values from patent US8999892B2, “Use of S-abscisic acid for improving fruit set and producing parthenocarpic fruits and as a growth inhibitor” (Globachem, priority 2004, dated 2015).

How the values were obtained:
Format in all cases: in vivo
[1] = tested on: apple trees, variety Jonagored; assay: Promoting fruit set in pome fruit, orchard spray trial 2003; details: 2 g/ha sprayed three weeks after full flower
From the text: Experimental period: 2003 Pome fruit crops treated: apple trees, variety Jonagored. The fruit orchard was sprayed on 9 May, that is, three weeks after full flower (18 April). S-ABA was applied in a dose of 2 g/ha. For the control experiment, the same formulation, but without S-ABA, was used. The number of fruit trees per plot was 10.

[2] = tested on: apple trees, variety Boskoop; assay: Promoting fruit set, production of parthenocarpic fruits and inhibition of growth in pome fruit, orchard spray trial 2004; details: for Number of apples/tree / Number of unclosed buds/tree (crown tip excluded): evaluation 6 Jul. 2004
From the text: Experimental period: 2004 Pome fruit crops treated: apple trees, variety Boskoop The fruit orchard was sprayed on 23 April, that is, during full flower. A further plot was spayed on 20 May 2004. S-ABA was applied in a dose of 2 g/ha. For the control experiment, the same formulation, but with-out S-ABA, was used. The number of fruit trees per plot was 40. The evaluation on 6 Jul. 2004 provided the following results: The buds or shoots in the crown tip of the trees were not taken into account because increased shoot growth frequently occurs in these places due to intensive cutting measures. In general, the growth of shoots in the crown tip is stronger than in the other regions of the tree crown.

[3] = tested on: cherry trees, variety Summit; assay: Improvement of fruit set in stone fruit, orchard spray trial 2004; details: 2 g/ha sprayed one week after flowering
From the text: Experimental period: 2004 Stone fruit crops treated: cherry trees, variety Summit The fruit orchard was sprayed with S-ABA one week after flowering; the dose was 2 g/ha. For the control experiment, the same formulation, but without S-ABA, was used. The number of fruit trees per plot was 5.

[4] = 2 g/ha sprayed 23 April (full flower)

For `CC(C=C[C@@]1(O)C(C)=CC(=O)CC1(C)C)=CC(=O)O` (stereo in doubt) [S-ABA, (S)-5-(1-hydroxy-2,6,6-trimethyl-4-oxo-2-cyclohexenyl)-3-methyl-cis/trans-2,4-pentanedienoic acid], the “Apples in grade 75-85 mm” value [1] was 15.54 kg, the “Apples in grade A2++ (75-85 mm)” value [1] was 9.62 kg and the “Increase in number of apples per tree as compared to the control” value [1] was 17%. For the same compound, the “Increase in yield (in kg) as compared to the control” value [1] was 8%, the “Increase in yield in the high grades” value [1] was 84% and the “Increase in yield of grade A2++ (optimal fruit color)” value [1] was “near doubling of the yield”. The Number of apples/tree [1] was 129, the Yield ([1]; 10 trees per plot) was 33.37 kg/tree and the Number of apples/tree ([2]; 2 g/ha sprayed 20 May) was 42. For the same compound, the “Number of unclosed buds/tree (crown tip excluded)” value ([2]; 2 g/ha sprayed 20 May) was 0, the Number of apples/tree [2, 4] was 35.4 and the “Number of unclosed buds/tree (crown tip excluded)” value [2, 4] was 1.66. The “Increase in total number of apples per tree as compared with the control” value ([2]; plot treated 20 May) was “approximately 21%”, the “Closure of buds (inhibition of vegetative growth)” value ([2]; plots treated with S-ABA, independently of the time of treatment) was “almost all buds were closed” and the “Effect on fruit set of treatment during flowering” value ([2]; treatment during flowering (23 April)) was “not adversely affected”. For the same compound, the “Formation of parthenocarpic fruits” value ([2]; trees treated with 2 g/ha) was “parthenocarpic, pipless fruits were formed”, the “Formation of parthenocarpic fruits” value [3] was “Parthenocarpic fruits were not observed” and the “Increase in number of fruits compared to the control plot” value [3] was “near doubling of the number of fruits”. The Weight per cherry [3] was “not significantly influenced” and the Yield ([3]; 5 trees per plot) was 25 kg/tree.
